Earlier results as cited in patent US4127523A, “Novel undecapeptides, intermediates therefor, and compositions and methods employing said undecapeptides” (priority 1977, dated 1978).

How the values were obtained:
[1] = literature
[2] = injected directly into the brain of the rat; Belluzzi et al.
[3] = tested on: partially purified brain opiate receptor sites; conditions: literature, Bradbury et al.

H-Tyr-Gly-Gly-Phe-Met-OH [methionine enkephalin]
activity in bioassays for opiate activity [1]: very active
analgesic activity [2]: only weak analgesic agent of short duration
binding to partially purified brain opiate receptor sites [3]: binds stereo-specifically
